Assay results from PubChem BioAssay AID330 (DTP/NCI, 2004).
Several values for one entry are separate records, joined by “and”; a condition that tells them apart may be missing. Equal entries are not always repeated. Toxic doses and inconclusive results are not listed. How the source made its calls: active means survival T/C of 150% or more; inactive means T/C below 125% in these data.

System: P388 leukemia ip, CD2F1 mice, survival T/C
Test: NCI In Vivo Anticancer Drug Screen. Data for tumor model P388 Leukemia (intraperitoneal) in CD2F1 (CDF1) mice
Conditions: endpoint: median survival time, higher = longer survival
Procedure, shortened: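 Mice carrying the transplanted tumor received test compound or vehicle. Survival was recorded in each group, and the value is the treated-group measurement divided by that of the vehicle-treated control group.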

[1] = dose: 50.0 mg/kg/injection, schedule: Q01DX009 (ip), vehicle: Klucel (hydroxypropylcellulose) (HPC)
[2] = dose: 100.0 mg/kg/injection, schedule: Q01DX001 (ip), vehicle: Klucel (hydroxypropylcellulose) (HPC)
[3] = dose: 200.0 mg/kg/injection, schedule: Q01DX001 (ip), vehicle: Klucel (hydroxypropylcellulose) (HPC)
[4] = dose: 60.0 mg/kg/injection, schedule: Q01DX005 (ip), vehicle: saline with Tween-80
[5] = dose: 120.0 mg/kg/injection, schedule: Q01DX005 (ip), vehicle: saline with Tween-80
[6] = dose: 240.0 mg/kg/injection, schedule: Q01DX005 (ip), vehicle: saline with Tween-80
[7] = dose: 50.0 mg/kg/injection, schedule: Q01DX005 (ip), vehicle: Klucel (hydroxypropylcellulose) (HPC)
[8] = dose: 100.0 mg/kg/injection, schedule: Q01DX005 (ip), vehicle: Klucel (hydroxypropylcellulose) (HPC)
[9] = dose: 200.0 mg/kg/injection, schedule: Q01DX005 (ip), vehicle: Klucel (hydroxypropylcellulose) (HPC)
[10] = dose: 100.0 mg/kg/injection, schedule: Q04DX003 (ip), vehicle: saline
[11] = dose: 200.0 mg/kg/injection, schedule: Q04DX003 (ip), vehicle: saline
[12] = dose: 400.0 mg/kg/injection, schedule: Q04DX003 (ip), vehicle: saline

Measured: T/C

CN(CCOc1c(I)cc(I)cc1I)CC(O)C(O)C(O)C(O)CO (centres undefined)
inactive: dose: 50.0 mg/kg/injection, schedule: Q01DX001 (ip), vehicle: Klucel (hydroxypropylcellulose) (HPC) 110 % of control | [1] 94 % of control | [2] 108 % of control | [3] 109 % of control

Cn1c2ccccc2c(=Nc2ccc(S(=O)(=O)N=C(N)N)cc2)c2ccccc21
inactive: dose: 50.0 mg/kg/injection, schedule: Q01DX005 (ip), vehicle: saline with Tween-80 106 % of control | dose: 100.0 mg/kg/injection, schedule: Q01DX005 (ip), vehicle: saline with Tween-80 96 % of control

c1ccc(-c2nnn(CCCN3CCOCC3)n2)cc1
inactive: [2] 100 % of control | [3] 97 % of control | dose: 400.0 mg/kg/injection, schedule: Q01DX001 (ip), vehicle: Klucel (hydroxypropylcellulose) (HPC) 102 % of control

O=C(Nc1cccc(Cl)c1)Nc1ccc[nH]c1=O
inactive: dose: 50.0 mg/kg/injection, schedule: Q01DX009 (ip), vehicle: saline with Tween-80 101 % of control | dose: 100.0 mg/kg/injection, schedule: Q01DX009 (ip), vehicle: saline with Tween-80 109 % of control | dose: 200.0 mg/kg/injection, schedule: Q01DX009 (ip), vehicle: saline with Tween-80 109 % of control

O=[N+]([O-])O.[Ga]
inactive: dose: 6.25 mg/kg/injection, schedule: Q01DX005 (ip), vehicle: saline 100 % of control | dose: 6.25 mg/kg/injection, schedule: Q01DX010 (ip), vehicle: saline 100 % of control | dose: 12.5 mg/kg/injection, schedule: Q01DX005 (iv), vehicle: saline 99 % of control | dose: 12.5 mg/kg/injection, schedule: Q01DX010 (ip), vehicle: saline 100 % of control | dose: 25.0 mg/kg/injection, schedule: Q01DX005 (ip), vehicle: saline 100 % of control and 123 % of control | dose: 25.0 mg/kg/injection, schedule: Q01DX005 (iv), vehicle: saline 96 % of control | dose: 25.0 mg/kg/injection, schedule: Q01DX010 (ip), vehicle: saline 118 % of control | dose: 50.0 mg/kg/injection, schedule: Q01DX005 (iv), vehicle: saline 98 % of control and 91 % of control | dose: 50.0 mg/kg/injection, schedule: Q01DX010 (ip), vehicle: saline 100 % of control

O=C(O)C(Cc1ccccc1)NC(c1ccccc1)P(=O)(O)O (centres undefined)
inactive: [4] 101 % of control | [5] 99 % of control | [6] 105 % of control

CN=C(N)N/N=C(\c1ccccc1)c1ccc(I)cc1
inactive: dose: 25.0 mg/kg/injection, schedule: Q04DX002 (ip), vehicle: saline with Tween-80 104 % of control | dose: 50.0 mg/kg/injection, schedule: Q04DX002 (ip), vehicle: saline with Tween-80 107 % of control | dose: 100.0 mg/kg/injection, schedule: Q04DX002 (ip), vehicle: saline with Tween-80 107 % of control

CCCC(=O)NN(Cn1c(=S)sc2ccccc21)Cn1c(=S)sc2ccccc21
inactive: [7] 101 % of control | [8] 90 % of control | [9] 93 % of control

CCCCCC(=O)Cc1cc(OC)cc(O)c1C(=O)Oc1cc(CCCCC)c(C(=O)O)c(OC)c1
inactive: dose: 0.25 mg/kg/injection, schedule: Q01DX009 (ip), vehicle: saline with Tween-80 101 % of control | dose: 0.5 mg/kg/injection, schedule: Q01DX009 (ip), vehicle: saline with Tween-80 104 % of control | dose: 1.0 mg/kg/injection, schedule: Q01DX009 (ip), vehicle: saline with Tween-80 108 % of control

CC1(C)COC(c2ccccc2-c2ccccc2C2OCC(C)(C)CO2)OC1
inactive: [10] 100 % of control | [11] 99 % of control | [12] 104 % of control

S=P1(c2ccccc2)C=C(N2CCCC2)CC1 (centres undefined)
inactive: dose: 12.5 mg/kg/injection, schedule: Q01DX009 (ip), vehicle: saline 109 % of control | dose: 25.0 mg/kg/injection, schedule: Q01DX009 (ip), vehicle: saline 110 % of control | dose: 50.0 mg/kg/injection, schedule: Q01DX009 (ip), vehicle: saline 112 % of control | dose: 100.0 mg/kg/injection, schedule: Q01DX009 (ip), vehicle: saline 104 % of control | dose: 200.0 mg/kg/injection, schedule: Q01DX009 (ip), vehicle: saline 96 % of control

CCC[CH2][Sn]1([CH2]CCC)[O]c2ccccc2[O]1
inactive: dose: 0.39 mg/kg/injection, schedule: Q01DX005 (ip), vehicle: saline with Tween-80 103 % of control | dose: 0.78 mg/kg/injection, schedule: Q01DX005 (ip), vehicle: saline with Tween-80 106 % of control | dose: 1.56 mg/kg/injection, schedule: Q01DX005 (ip), vehicle: saline with Tween-80 109 % of control and 124 % of control | dose: 3.12 mg/kg/injection, schedule: Q01DX005 (ip), vehicle: Klucel (hydroxypropylcellulose) (HPC) 100 % of control | dose: 3.12 mg/kg/injection, schedule: Q01DX005 (ip), vehicle: saline with Tween-80 123 % of control | dose: 6.25 mg/kg/injection, schedule: Q01DX005 (ip), vehicle: Klucel (hydroxypropylcellulose) (HPC) 105 % of control | dose: 12.5 mg/kg/injection, schedule: Q01DX005 (ip), vehicle: Klucel (hydroxypropylcellulose) (HPC) 107 % of control

CCCCN1C(=S)NC(OC)C1(C)C (centres undefined)
inactive: dose: 50.0 mg/kg/injection, schedule: Q01DX009 (ip), vehicle: suspension in saline 100 % of control | dose: 100.0 mg/kg/injection, schedule: Q01DX009 (ip), vehicle: suspension in saline 94 % of control | dose: 200.0 mg/kg/injection, schedule: Q01DX009 (ip), vehicle: suspension in saline 100 % of control

CC(C)(C)C1CCC=CC(=O)C1 (centres undefined)
inactive: dose: 100.0 mg/kg/injection, schedule: Q04DX003 (ip), vehicle: Klucel (hydroxypropylcellulose) (HPC) 105 % of control | dose: 200.0 mg/kg/injection, schedule: Q04DX003 (ip), vehicle: Klucel (hydroxypropylcellulose) (HPC) 113 % of control

COc1ccc(CCN2C=CC(C#N)C=C2)cc1OC
inactive: [7] 91 % of control | [8] 101 % of control | [9] 98 % of control

CCCCCCCCCCCC1NC(=S)NC(=O)C1C#N (centres undefined)
inactive: [1] 95 % of control | dose: 100.0 mg/kg/injection, schedule: Q01DX009 (ip), vehicle: Klucel (hydroxypropylcellulose) (HPC) 93 % of control | dose: 200.0 mg/kg/injection, schedule: Q01DX009 (ip), vehicle: Klucel (hydroxypropylcellulose) (HPC) 92 % of control

N#CC(OC1OC(COC2OC(CO)C(O)C(O)C2O)C(O)C(O)C1O)c1ccccc1 (centres undefined)
inactive: dose: 25.0 mg/kg/injection, schedule: Q01DX009 (ip), vehicle: water 102 % of control and 108 % of control | dose: 50.0 mg/kg/injection, schedule: Q01DX009 (ip), vehicle: water 101 % of control and 108 % of control | dose: 100.0 mg/kg/injection, schedule: Q01DX009 (ip), vehicle: water 102 % of control and 105 % of control and 94 % of control | dose: 200.0 mg/kg/injection, schedule: Q01DX009 (ip), vehicle: water 105 % of control and 109 % of control and 92 % of control | dose: 400.0 mg/kg/injection, schedule: Q01DX009 (ip), vehicle: water 105 % of control and 110 % of control and 96 % of control | dose: 800.0 mg/kg/injection, schedule: Q01DX009 (ip), vehicle: saline 98 % of control | dose: 800.0 mg/kg/injection, schedule: Q01DX009 (ip), vehicle: water 105 % of control and 123 % of control and 96 % of control | dose: 1600.0 mg/kg/injection, schedule: Q01DX009 (ip), vehicle: saline 100 % of control

CC1(C)COC2(C)N(c3ccccc3)C(=O)ON12 (centres undefined)
inactive: [7] 100 % of control | [8] 100 % of control | [9] 97 % of control

COC(=O)C1(N)CCCC1
inactive: [10] 90 % of control | [11] 113 % of control | [12] 109 % of control

FC(F)(F)c1cccc(COCCN2CCN(Cc3cccc(C(F)(F)F)c3)CC2)c1
inactive: [4] 103 % of control | [5] 95 % of control | [6] 112 % of control

O=C1/C(=C\O)C2CCC3CCC4CC1C342 (centres undefined)
inactive: dose: 25.0 mg/kg/injection, schedule: Q01DX005 (ip), vehicle: Klucel (hydroxypropylcellulose) (HPC) 103 % of control | [7] 97 % of control | [8] 107 % of control
